Source: US8110573B2, “Pyrazole compounds that modulate the activity of CDK, GSK and aurora kinases” (Astex Therapeutics Limited, priority 2004, dated 2012)
pIC50: −log10 of the molar value. Counter-ions that a name gives are not always drawn.

Tests used:
[1] = system: HCT-116 cell line; assay: Anti-proliferative activity (Alamar Blue assay); assay type: cell-based, human
Method: The anti-proliferative activities of compounds of the invention can be determined by measuring the ability of the compounds to inhibition of cell growth in a number of cell lines. Inhibition of cell growth is measured using the Alamar Blue assay (Nociari, M. M, Shalev, A., Benias, P., Russo, C. Journal of Immunological Methods 1998, 213, 157-167). The method is based on the ability of viable cells to reduce resazurin to its fluorescent product resorufin. For each proliferation assay cells are plated onto 96 well plates and allowed to recover for 16 hours prior to the addition of inhibitor compounds for a further 72 hours. At the end of the incubation period 10% (v/v) Alamar Blue is added and incubated for a further 6 hours prior to determination of fluorescent product at […]. In the case of the non-proliferating cell assay cells are maintained at confluence for 96 hour prior to the addition of inhibitor compounds for a further 72 hours. The number of viable cells is determined by Alamar Blue assay as before. In addition, any morphological changes are recorded. Cell lines can be obtained from the ECACC (European Collection of cell Cultures).
In particular, compounds of the invention were tested against the HCT-116 cell line (ECACC Reference: 91091005) derived from human colon carcinoma.

[2] = molecular target: T1, CDK1/CyclinB (Homo sapiens, UniProt P06493); assay: Activated CDK1/CyclinB kinase inhibitory activity assay; assay type: biochemical
T1 construct: purchased Upstate Discovery
T1 sequence (P06493 whole entry): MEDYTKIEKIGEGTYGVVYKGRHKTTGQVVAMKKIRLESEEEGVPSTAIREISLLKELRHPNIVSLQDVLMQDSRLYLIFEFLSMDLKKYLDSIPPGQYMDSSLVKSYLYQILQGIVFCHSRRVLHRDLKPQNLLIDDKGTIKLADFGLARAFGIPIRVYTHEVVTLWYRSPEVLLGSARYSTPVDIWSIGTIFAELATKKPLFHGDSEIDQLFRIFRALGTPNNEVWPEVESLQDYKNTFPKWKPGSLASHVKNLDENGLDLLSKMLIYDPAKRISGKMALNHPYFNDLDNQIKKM
T1 sequence (P14635 whole entry partner): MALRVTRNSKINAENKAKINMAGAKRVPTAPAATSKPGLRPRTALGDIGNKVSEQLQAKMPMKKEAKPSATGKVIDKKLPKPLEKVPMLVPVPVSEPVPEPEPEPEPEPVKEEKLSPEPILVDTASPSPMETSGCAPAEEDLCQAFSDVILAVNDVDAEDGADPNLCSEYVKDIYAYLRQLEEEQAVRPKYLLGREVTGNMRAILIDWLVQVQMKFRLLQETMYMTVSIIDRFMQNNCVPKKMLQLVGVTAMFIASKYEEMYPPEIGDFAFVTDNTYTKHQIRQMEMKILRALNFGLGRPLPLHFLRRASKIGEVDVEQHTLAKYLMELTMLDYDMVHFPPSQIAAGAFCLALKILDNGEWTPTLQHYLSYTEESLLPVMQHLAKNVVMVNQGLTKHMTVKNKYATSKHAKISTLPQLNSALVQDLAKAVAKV
Method: The reaction is allowed to proceed for 2 to 4 hours before being stopped with an excess of ortho-phosphoric acid (5 μl at 2%). γ^33P-ATP which remains unincorporated into the histone H1 is separated from phosphorylated histone H1 on a Millipore MAPH filter plate. The wells of the MAPH plate are wetted with 0.5% orthophosphoric acid, and then the results of the reaction are filtered with a Millipore vacuum filtration unit through the wells. Following filtration, the residue is washed twice with 200 μl of 0.5% orthophosphoric acid. Once the filters have dried, 20 μl of Microscint 20 scintillant is added, and then counted on a Packard Topcount for 30 seconds.
CDK1/CyclinB assay is identical to the CDK2/CyclinA above except that CDK1/CyclinB (Upstate Discovery) is used and the enzyme is diluted to 6.25 nM.

[3] = Salt stability at 40° C. 75% RH followed by XRPD; assay type: physicochemical; settings: 40° C. and 75% RH over the period of 1-2 month
Method: Approximately 15 mg of samples for the stability study were gently ground by marble mortar and transferred to a Petri dish in a thin layer. Samples were then placed in sealed containers containing saturated NaCl solution with an excess of undissolved NaCl. […] Samples were analysed by X-ray powder diffraction (XRPD) in regular intervals. Samples for XRPD data collection were loaded into crystallographic capillary (from Hampton Research, made of Quartz, diameter=0.4 mm). […] 2D Images were collected while spinning φ axis with a detector to crystal distance of 250 mm. Data collection was controlled by CrystalClear software and 2D images were converted to 1D plot (2θ vs. Intensity) by Datasqueeze (intensity averaged over the azimuthal angle 0<χ<360° for 2θ range 3-30° in 0.01° steps).

[4] = physchem; settings: water, thermodynamic from solid
[5] = Gravimetric vapour sorption (GVS); assay type: physicochemical; settings: 0-90% RH cycle, 25° C.
Method: The sample size was ca. 10-25 mg. […] The sample was loaded and unloaded at room humidity and temperature (ca. 40% RH, 25° C.) and analysed afterwards by XRPD (using a Bruker AXS C2 GADDS system).

Row | Structure (SMILES) | minimum concentration at which polyploidy or multinucleation is observed ([1]; HCT-116 cell line) | pIC50 ([1]; Homo sapiens, HCT-116, 72 hours compound, Alamar Blue, read-out: IC50, inhibition of cell growth, HCT-116 cell line) | pIC50 [2] | change of XRPD pattern on storage [3] | solubility at 16 h [4] [mg/mL] | hygroscopic behaviour (GVS isotherm) [5]
1 | O=C(Nc1c[nH]nc1-c1nc2cc(CN3CCOCC3)ccc2[nH]1)NC1CC1 [Example 24, 1-cyclopropyl-3-[3-(5-morpholin-4-ylmethyl-1H-benzoimidazol-2-yl)-1H-pyrazol-4-yl]-urea] | less than 100 nM | > 6.00 | > 5.00 | do not change | – | –
2 | O=C(Nc1c[nH]nc1-c1nc2cc(CN3CCOCC3)ccc2[nH]1)NC1CC1 [Hydrochloride, 1-cyclopropyl-3-[3-(5-morpholin-4-ylmethyl-1H-benzoimidazol-2-yl)-1H-pyrazol-4-yl]-urea] | – | – | – | – | < 25 | –
3 | C[C@H](O)C(=O)O.O=C(Nc1c[nH]nc1-c1nc2cc(CN3CCOCC3)ccc2[nH]1)NC1CC1 [L-lactate salt, 1-cyclopropyl-3-[3-(5-morpholin-4-ylmethyl-1H-benzoimidazol-2-yl)-1H-pyrazol-4-yl]-urea, L-lactate salt] | – | – | – | do not change | – | does not display hygroscopic behaviour and does not form a hydrate
